In brackets after ≈: the same amount, converted by molar mass. Several values for one entry are separate records, joined by “and”; a condition that tells them apart may be missing. Equal values may be shown once.
Legend:
Experiment in all cases: ≥ marks a high value that may be exact or a test limit, other limits are often not marked, values filed in µg/mL are converted to µM
[1] = test system: Pseudomonas aeruginosa ATCC BAA-427
[2] = test system: Bacillus subtilis ATCC 6633
[3] = test system: Klebsiella pneumoniae ATCC 700603
[4] = test system: Bacillus megaterium Bm11
[5] = test system: Pseudomonas aeruginosa
[6] = test system: Staphylococcus capitis 1
[7] = test system: Pseudomonas aeruginosa ATCC 15692
[8] = test system: Yersinia pseudotuberculosis YPIII
[9] = test system: Enterococcus faecium ATCC 700221
[10] = test system: Saccharomyces cerevisiae
[11] = test system: Staphylococcus aureus ATCC BAA-44
[12] = test system: Escherichia coli ATCC 9637
[13] = test system: Acinetobacter junii RT-4
[14] = test system: Staphylococcus aureus Cowan 1
[15] = test system: Enterococcus faecalis ATCC 29212
[16] = test system: Cryptococcus neoformans
[17] = test system: Aeromonas hydrophila Rt-6
[18] = test system: Candida parapsilosis ATCC 22019
[19] = test system: Streptococcus pyogenes ATCC 21547
[20] = test system: Staphylococcus aureus ATCC 700698
[21] = test system: Klebsiella pneumoniae ATCC 27736
[22] = test system: Acinetobacter baumannii ATCC BAA-747
[23] = test system: Candida albicans ATCC 10231
[24] = test system: Staphylococcus aureus ATCC 700699
[25] = test system: Schizosaccharomyces pombe
[26] = test system: Pseudomonas aeruginosa ATCC 27583
[27] = test system: Pseudomonas aeruginosa ATCC 27853
[28] = test system: Staphylococcus epidermidis ATCC 12228
[29] = test system: Staphylococcus aureus ATCC 43300
[30] = test system: Staphylococcus aureus ATCC 29213
[31] = test system: Acinetobacter baumannii ATCC 19606
[32] = test system: Pseudomonas syringae pv. tabaci 1918NCPPB
[33] = test system: Staphylococcus aureus ATCC 33592
[34] = test system: Escherichia coli D21
[35] = test system: Enterobacter cloacae St. L P23
[36] = test system: Klebsiella aerogenes St. L P63
[37] = test system: Enterobacter asburiae St. L P23
[38] = test system: Pseudomonas aeruginosa J4228
[39] = test system: Acinetobacter baumannii Josh 230
[40] = test system: Klebsiella pneumoniae BB2009-209
[41] = test system: Escherichia coli ARLG-1012
[42] = test system: Escherichia coli ATCC 25922
[43] = test system: Escherichia coli BB2013-30
[44] = test system: Pseudomonas aeruginosa BB2013-100
[45] = test system: Enterobacter cloacae BB2013-32
[46] = test system: Klebsiella pneumoniae J3702
[47] = test system: Klebsiella pneumoniae Oschner KP-1
[48] = test system: Acinetobacter baumannii Josh 28
[49] = test system: Escherichia coli BW25113
[50] = test system: Enterobacter cloacae BB2012-181
[51] = test system: Escherichia coli JW55034

Structure (SMILES): CC[C@H](C)[C@H](NC(=O)[C@H](CCCNC(=N)N)NC(=O)CNC(=O)[C@H](CC(C)C)NC(=O)[C@H](Cc1ccccc1)NC(=O)[C@H](CCCCN)NC(=O)[C@H](CO)NC(=O)[C@H](Cc1ccccc1)NC(=O)[C@H](Cc1c[nH]c2ccccc12)NC(=O)[C@H](CCC(N)=O)NC(=O)[C@@H](NC(=O)[C@@H](N)Cc1ccccc1)C(C)C)C(=O)N[C@@H](CC(C)C)C(N)=O [FVQWFSKFLGRIL]
- MIC [1]: 7.6 µM (≈ 12.5 µg/mL)
- MIC [2]: 7.6 µM (≈ 12.5 µg/mL)
- MIC [3]: 16 µM (≈ 26.2 µg/mL)
- MIC [4]: 1.94 µM (≈ 3.18 µg/mL)
- MIC [5]: 64 µM (≈ 105 µg/mL)
- MIC [6]: 1.5 µM (≈ 2.46 µg/mL)
- MIC [7]: 21.9 µM (≈ 35.9 µg/mL)
- MIC [8]: 3 µM (≈ 4.92 µg/mL)
- MIC [9]: 8 µM (≈ 13.1 µg/mL)
- MIC [10]: 6 µM (≈ 9.84 µg/mL)
- MIC [11]: 3.6 µM (≈ 5.9 µg/mL)
- MIC [12]: 12.5 µM (≈ 20.5 µg/mL)
- MIC [13]: 3 µM (≈ 4.92 µg/mL)
- MIC [14]: 2.74 µM (≈ 4.49 µg/mL)
- MIC [15]: 6 µM (≈ 9.84 µg/mL)
- MIC [16]: 12 µM (≈ 19.7 µg/mL)
- MIC [17]: ≥ 40 µM
- MIC [18]: 12 µM (≈ 19.7 µg/mL)
- MIC [19]: 6 µM (≈ 9.84 µg/mL)
- MIC [20]: 3.6 µM (≈ 5.9 µg/mL)
- MIC [21]: 11.4 µM (≈ 18.7 µg/mL)
- MIC [22]: 4 µM (≈ 6.56 µg/mL)
- MIC [23]: 12 µM (≈ 19.7 µg/mL)
- MIC [24]: 3.6 µM (≈ 5.9 µg/mL)
- MIC [25]: 6 µM (≈ 9.84 µg/mL)
- MIC [26]: ≥ 32 µM
- MIC [27]: > 48 µM
- MIC [28]: 1.94 µM (≈ 3.18 µg/mL)
- MIC [29]: 4 µM (≈ 6.56 µg/mL)
- MIC [30]: 3.6 µM (≈ 5.9 µg/mL)
- MIC [31]: 6 µM (≈ 9.84 µg/mL)
- MIC [32]: 6 µM (≈ 9.84 µg/mL)
- MIC [33]: 3.6 µM (≈ 5.9 µg/mL)
- MIC [34]: 11 µM (≈ 18 µg/mL)

Structure (SMILES): CC[C@H](C)[C@H](NC(=O)CN)C(=O)N[C@@H](CCCCN)C(=O)N[C@H](C(=O)N[C@@H](CCCN=C(N)N)C(=O)N[C@@H](CCCCN)C(=O)N[C@@H](CC(C)C)C(=O)N[C@@H](Cc1ccccc1)C(=O)N[C@@H](CCCCN)C(=O)N[C@@H](CCCCN)C(=O)N[C@@H](CC(C)C)C(=O)N[C@@H](CC(C)C)C(=O)N[C@@H](CCCN=C(N)N)C(N)=O)[C@@H](C)CC [GIKIRKLFKKLLR]
- MIC [35]: 19.8 µM (≈ 32 µg/mL)
- MIC [36]: 19.8 µM (≈ 32 µg/mL)
- MIC [37]: 19.8 µM (≈ 32 µg/mL)
- MIC [38]: 4.96 µM (≈ 8 µg/mL)
- MIC [39]: 9.92 µM (≈ 16 µg/mL)
- MIC [40]: 19.8 µM (≈ 32 µg/mL)
- MIC [41]: 4.96 µM (≈ 8 µg/mL)
- MIC [42]: 2.74 µM and 5.48 µM
- MIC [43]: 9.92 µM (≈ 16 µg/mL)
- MIC [44]: 19.8 µM (≈ 32 µg/mL)
- MIC [45]: 19.8 µM (≈ 32 µg/mL)
- MIC [46]: 19.8 µM (≈ 32 µg/mL)
- MIC [27]: 2.48 µM (≈ 4 µg/mL)
- MIC [47]: 19.8 µM (≈ 32 µg/mL)
- MIC [48]: 2.48 µM (≈ 4 µg/mL)
- MIC [49]: 4.96 µM (≈ 8 µg/mL)
- MIC [50]: 19.8 µM (≈ 32 µg/mL)
- MIC [51]: 4.96 µM (≈ 8 µg/mL)

Reference: DBAASP
